Test results taken from paper PMC10461478, “The chemical profiling of Salvia plebeia during different growth periods and the biosynthesis of its main flavonoids ingredients” (Frontiers in Plant Science, 2023).

Assays:
SpFNS = target: T1, SpFNS (Salvia plebeia, UniProt A0AA49X7D7); experiment: HPLC-DAD / UPLC-Q-TOF-MS product detection; assay type: biochemical; conditions: 1 mM NADPH, 0.5 mM GSH, 100 mM Tris-HCl, 28 °C, 12 h; AtCPR co-expressed; product apigenin
T1 construct: gene FNS

SpPAL = target: T2, SpPAL (Salvia plebeia, UniProt A0AA50AET4); experiment: HPLC-DAD / UPLC-Q-TOF-MS product detection; assay type: biochemical; conditions: 100 mM Tris-HCl, 37 °C, 8 h; product cinnamic acid
T2 construct: gene PAL; full ORF in pET28a (His tag), E. coli BL21(DE3), Ni-NTA purified
T2 sequence (A0AA50AET4 1-710): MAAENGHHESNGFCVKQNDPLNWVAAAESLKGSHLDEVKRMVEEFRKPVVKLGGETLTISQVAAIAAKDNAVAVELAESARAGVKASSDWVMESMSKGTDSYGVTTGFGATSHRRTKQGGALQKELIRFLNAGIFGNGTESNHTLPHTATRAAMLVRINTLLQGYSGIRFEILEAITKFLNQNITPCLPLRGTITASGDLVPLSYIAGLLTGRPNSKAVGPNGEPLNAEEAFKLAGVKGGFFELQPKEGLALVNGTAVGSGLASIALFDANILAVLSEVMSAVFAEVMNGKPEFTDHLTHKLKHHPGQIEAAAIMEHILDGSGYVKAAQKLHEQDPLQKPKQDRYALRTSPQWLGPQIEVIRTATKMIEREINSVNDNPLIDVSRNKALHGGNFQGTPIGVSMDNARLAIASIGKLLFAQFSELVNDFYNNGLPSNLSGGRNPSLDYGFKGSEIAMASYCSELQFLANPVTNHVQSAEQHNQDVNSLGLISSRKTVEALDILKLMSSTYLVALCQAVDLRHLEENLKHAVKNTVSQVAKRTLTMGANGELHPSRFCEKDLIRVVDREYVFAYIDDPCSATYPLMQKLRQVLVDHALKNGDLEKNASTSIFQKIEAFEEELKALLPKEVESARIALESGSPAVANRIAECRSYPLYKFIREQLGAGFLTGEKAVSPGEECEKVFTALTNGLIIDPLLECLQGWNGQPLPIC

SpF6H1 = target: T3, SpF6H1 (Salvia plebeia, UniProt A0AA49X7K6); experiment: HPLC-DAD / UPLC-Q-TOF-MS product detection; assay type: biochemical; conditions: 1 mM NADPH, 0.5 mM GSH, 100 mM Tris-HCl, 28 °C, 12 h; AtCPR co-expressed; product scutellarein
T3 construct: gene F6H1; ORF in pET32a (Trx/His tag), E. coli; co-expressed with AtCPR; with NADPH--cytochrome P450 reductase (Arabidopsis thaliana)
T3 sequence (A0AA49X7K6 1-521): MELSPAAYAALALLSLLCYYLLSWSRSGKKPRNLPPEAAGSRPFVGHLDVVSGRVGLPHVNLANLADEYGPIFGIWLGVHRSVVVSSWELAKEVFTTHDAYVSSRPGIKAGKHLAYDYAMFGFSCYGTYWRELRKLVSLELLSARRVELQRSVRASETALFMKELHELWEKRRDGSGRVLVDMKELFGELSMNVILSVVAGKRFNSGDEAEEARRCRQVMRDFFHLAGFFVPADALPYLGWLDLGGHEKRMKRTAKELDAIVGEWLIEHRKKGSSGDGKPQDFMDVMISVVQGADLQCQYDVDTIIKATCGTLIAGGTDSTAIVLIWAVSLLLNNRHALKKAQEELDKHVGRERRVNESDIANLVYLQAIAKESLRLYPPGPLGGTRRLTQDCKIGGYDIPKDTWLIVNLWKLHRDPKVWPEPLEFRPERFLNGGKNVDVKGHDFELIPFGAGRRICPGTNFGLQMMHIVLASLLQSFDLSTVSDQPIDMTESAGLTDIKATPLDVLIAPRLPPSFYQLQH

SpCHS1 = target: T4, SpCHS1 (Salvia plebeia, UniProt A0AA50A905); experiment: HPLC-DAD / UPLC-Q-TOF-MS of E. coli culture extract; assay type: cell-based; conditions: substrate formed in situ by co-expressed RtTAL and Pt4CL from fed tyrosine; product naringenin chalcone
T4 construct: gene CHS1; ORF in pET28a, co-expressed in E. coli with RtTAL and Pt4CL (substrate supply)
T4 sequence (A0AA50A905 1-390): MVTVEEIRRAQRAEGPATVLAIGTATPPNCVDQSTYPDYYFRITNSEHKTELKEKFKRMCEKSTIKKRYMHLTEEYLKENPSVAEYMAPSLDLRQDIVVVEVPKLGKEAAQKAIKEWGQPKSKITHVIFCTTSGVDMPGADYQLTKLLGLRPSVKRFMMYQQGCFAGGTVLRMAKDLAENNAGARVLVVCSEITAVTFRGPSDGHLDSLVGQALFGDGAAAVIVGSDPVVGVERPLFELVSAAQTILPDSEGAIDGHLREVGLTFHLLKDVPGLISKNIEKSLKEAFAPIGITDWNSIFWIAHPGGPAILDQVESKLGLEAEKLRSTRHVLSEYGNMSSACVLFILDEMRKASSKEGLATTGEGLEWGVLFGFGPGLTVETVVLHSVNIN

SpCHI = target: T5, SpCHI (Salvia plebeia, UniProt A0AA49X7E2); experiment: HPLC-DAD / UPLC-Q-TOF-MS product detection; assay type: biochemical; conditions: 100 mM PBS, 25 °C, 2 s; product naringenin
T5 construct: gene CHI; full ORF in pET28a (His tag), E. coli BL21(DE3), Ni-NTA purified
T5 sequence (A0AA49X7E2 1-225): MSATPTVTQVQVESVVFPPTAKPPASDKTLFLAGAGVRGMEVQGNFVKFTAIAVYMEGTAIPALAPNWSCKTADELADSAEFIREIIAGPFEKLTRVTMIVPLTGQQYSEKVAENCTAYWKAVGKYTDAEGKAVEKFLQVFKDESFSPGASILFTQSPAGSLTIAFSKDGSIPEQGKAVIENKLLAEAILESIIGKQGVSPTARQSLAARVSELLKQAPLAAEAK

SpC4H = target: T6, SpC4H (Salvia plebeia, UniProt A0AA50AF12); experiment: HPLC-DAD / UPLC-Q-TOF-MS product detection; assay type: biochemical; conditions: 1 mM NADPH, 0.5 mM GSH, AtCPR added, 100 mM Tris-HCl, 28 °C, 12 h; product 4-coumaric acid
T6 construct: gene C4H; ORF in pET32a (Trx/His tag), E. coli BL21(DE3), Ni-NTA purified; AtCPR added; with NADPH--cytochrome P450 reductase (Arabidopsis thaliana)
T6 sequence (A0AA50AF12 entry or part of it): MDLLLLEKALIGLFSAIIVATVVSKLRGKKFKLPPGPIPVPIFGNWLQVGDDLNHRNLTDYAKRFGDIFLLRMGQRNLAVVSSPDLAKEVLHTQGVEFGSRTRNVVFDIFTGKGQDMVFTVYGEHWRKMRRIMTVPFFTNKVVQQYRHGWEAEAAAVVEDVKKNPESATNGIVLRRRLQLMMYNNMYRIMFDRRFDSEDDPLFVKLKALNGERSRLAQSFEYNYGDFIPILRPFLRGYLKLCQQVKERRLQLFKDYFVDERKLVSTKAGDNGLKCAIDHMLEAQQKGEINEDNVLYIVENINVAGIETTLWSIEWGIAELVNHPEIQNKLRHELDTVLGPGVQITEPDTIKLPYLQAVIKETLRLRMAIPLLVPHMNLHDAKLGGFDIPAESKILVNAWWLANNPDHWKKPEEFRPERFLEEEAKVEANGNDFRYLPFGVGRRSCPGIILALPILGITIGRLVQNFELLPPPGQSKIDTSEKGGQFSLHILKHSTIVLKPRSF

SpUGT2 = target: T7, SpUGT2 (Salvia plebeia, UniProt A0AA49XCW5); experiment: HPLC-DAD / UPLC-Q-TOF-MS product detection; assay type: biochemical; conditions: 1 mM UDP-glucose, 50 mM PBS, 30 °C, 4 h; product homoplantaginin
T7 construct: gene UGT2; ORF in pSJ8-MBP (MBP fusion), E. coli BL21(DE3), Ni-NTA purified
T7 sequence (A0AA49XCW5 1-478): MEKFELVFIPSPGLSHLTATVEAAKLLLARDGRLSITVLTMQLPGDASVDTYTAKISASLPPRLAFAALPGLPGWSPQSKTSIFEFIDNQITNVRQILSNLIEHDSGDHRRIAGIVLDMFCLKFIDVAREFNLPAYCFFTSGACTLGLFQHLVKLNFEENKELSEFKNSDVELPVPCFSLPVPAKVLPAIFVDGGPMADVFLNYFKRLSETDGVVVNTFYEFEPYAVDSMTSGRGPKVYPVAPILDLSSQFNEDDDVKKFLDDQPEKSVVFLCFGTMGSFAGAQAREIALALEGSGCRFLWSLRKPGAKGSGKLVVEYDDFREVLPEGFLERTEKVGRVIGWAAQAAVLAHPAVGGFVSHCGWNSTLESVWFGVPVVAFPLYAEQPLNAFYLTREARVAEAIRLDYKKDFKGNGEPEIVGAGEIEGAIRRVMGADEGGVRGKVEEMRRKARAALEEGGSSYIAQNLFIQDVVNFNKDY

SpUGT3 = target: T8, SpUGT3 (Salvia plebeia, UniProt A0AA49X848); experiment: HPLC-DAD / UPLC-Q-TOF-MS product detection; assay type: biochemical; conditions: 1 mM UDP-glucose, 50 mM PBS, 30 °C, 4 h; product homoplantaginin
T8 construct: gene UGT3; ORF in pSJ8-MBP (MBP fusion), E. coli BL21(DE3), Ni-NTA purified
T8 sequence (A0AA49X848 1-469): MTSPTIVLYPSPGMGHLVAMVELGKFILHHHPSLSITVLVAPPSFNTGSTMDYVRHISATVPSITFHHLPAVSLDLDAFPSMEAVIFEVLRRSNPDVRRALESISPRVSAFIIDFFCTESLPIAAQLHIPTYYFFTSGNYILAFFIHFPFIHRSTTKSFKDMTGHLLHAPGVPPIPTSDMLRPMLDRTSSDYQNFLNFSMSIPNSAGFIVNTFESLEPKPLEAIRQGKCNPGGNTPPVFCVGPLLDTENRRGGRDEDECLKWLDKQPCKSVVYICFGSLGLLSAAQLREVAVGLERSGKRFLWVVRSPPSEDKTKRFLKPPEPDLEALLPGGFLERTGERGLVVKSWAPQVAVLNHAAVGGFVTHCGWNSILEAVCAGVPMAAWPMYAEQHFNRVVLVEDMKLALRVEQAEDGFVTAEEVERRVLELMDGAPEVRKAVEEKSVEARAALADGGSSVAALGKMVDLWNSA

SpUGT1 = target: T9, SpUGT1 (Salvia plebeia, UniProt A0AA49X7M2); experiment: HPLC-DAD / UPLC-Q-TOF-MS product detection; assay type: biochemical; conditions: 1 mM UDP-glucose, 50 mM PBS, 30 °C, 4 h; product homoplantaginin
T9 construct: gene UGT1; ORF in pSJ8-MBP (MBP fusion), E. coli BL21(DE3), Ni-NTA purified
T9 sequence (A0AA49X7M2 1-450): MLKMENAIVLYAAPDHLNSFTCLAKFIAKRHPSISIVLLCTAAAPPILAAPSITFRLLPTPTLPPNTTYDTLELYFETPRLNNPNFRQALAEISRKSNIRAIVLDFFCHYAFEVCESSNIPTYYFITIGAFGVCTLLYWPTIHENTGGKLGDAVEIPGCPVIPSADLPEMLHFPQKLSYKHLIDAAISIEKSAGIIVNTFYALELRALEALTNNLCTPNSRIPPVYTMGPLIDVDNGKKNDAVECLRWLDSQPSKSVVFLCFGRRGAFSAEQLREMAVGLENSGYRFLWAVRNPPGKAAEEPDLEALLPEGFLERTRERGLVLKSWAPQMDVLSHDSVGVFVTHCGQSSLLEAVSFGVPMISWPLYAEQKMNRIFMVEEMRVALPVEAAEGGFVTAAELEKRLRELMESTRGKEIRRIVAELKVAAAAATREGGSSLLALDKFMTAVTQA

SpF6OMT1 = target: T10, SpF6OMT1 (Salvia plebeia, UniProt A0AA49X7D9); experiment: HPLC-DAD / UPLC-Q-TOF-MS product detection; assay type: biochemical; conditions: 1 mM SAM, 1 mM MgCl2, 1 mM DTT, 100 mM Tris-HCl, 28 °C, 12 h; product hispidulin
T10 construct: gene F6OMT1; full ORF in pET28a (His tag), E. coli BL21(DE3), Ni-NTA purified
T10 sequence (A0AA49X7D9 1-222): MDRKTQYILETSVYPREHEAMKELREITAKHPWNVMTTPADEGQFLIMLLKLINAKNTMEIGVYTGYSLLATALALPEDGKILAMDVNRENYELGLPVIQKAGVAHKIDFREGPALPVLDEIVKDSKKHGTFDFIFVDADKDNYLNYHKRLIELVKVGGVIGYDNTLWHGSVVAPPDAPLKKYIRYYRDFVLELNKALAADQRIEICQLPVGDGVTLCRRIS

SpF6OMT2 = target: T11, SpF6OMT2 (Salvia plebeia, UniProt A0AA49X7F5); experiment: HPLC-DAD / UPLC-Q-TOF-MS product detection; assay type: biochemical; conditions: 1 mM SAM, 1 mM MgCl2, 1 mM DTT, 100 mM Tris-HCl, 28 °C, 12 h; product hispidulin
T11 construct: gene F6OMT2; full ORF in pET28a (His tag), E. coli BL21(DE3), Ni-NTA purified
T11 sequence (A0AA49X7F5 1-247): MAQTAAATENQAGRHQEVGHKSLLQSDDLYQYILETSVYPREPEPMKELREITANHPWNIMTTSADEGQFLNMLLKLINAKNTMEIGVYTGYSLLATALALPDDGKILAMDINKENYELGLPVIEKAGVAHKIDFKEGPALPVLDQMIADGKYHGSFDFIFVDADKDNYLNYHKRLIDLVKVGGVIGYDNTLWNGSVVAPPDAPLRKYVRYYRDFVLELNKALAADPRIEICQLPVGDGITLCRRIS

T1 sequence (A0AA49X7D7 1-507): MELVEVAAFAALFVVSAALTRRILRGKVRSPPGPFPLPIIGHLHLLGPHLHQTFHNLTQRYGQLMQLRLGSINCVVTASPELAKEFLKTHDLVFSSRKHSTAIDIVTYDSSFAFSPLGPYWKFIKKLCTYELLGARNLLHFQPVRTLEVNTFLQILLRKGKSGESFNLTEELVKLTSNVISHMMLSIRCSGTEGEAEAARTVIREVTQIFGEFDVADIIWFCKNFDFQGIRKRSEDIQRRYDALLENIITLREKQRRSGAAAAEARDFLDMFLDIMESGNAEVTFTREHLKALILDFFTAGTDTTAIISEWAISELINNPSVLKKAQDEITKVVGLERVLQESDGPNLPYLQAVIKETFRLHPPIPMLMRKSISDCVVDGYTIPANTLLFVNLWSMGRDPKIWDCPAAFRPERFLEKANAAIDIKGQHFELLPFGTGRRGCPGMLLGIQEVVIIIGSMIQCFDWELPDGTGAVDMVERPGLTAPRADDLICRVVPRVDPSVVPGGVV

## O=C1C[C@@H](c2ccc(O)cc2)Oc2cc(O)cc(O)c21 [NG, naringenin]
SpFNS
  HPLC-DAD / UPLC-Q-TOF-MS product detection: SpFNS produced apigenin from naringenin

## N[C@@H](Cc1ccccc1)C(=O)O [Phe, phenylalanine]
SpPAL
  HPLC-DAD / UPLC-Q-TOF-MS product detection: SpPAL can catalyze the formation of cinnamic acid from phenylalanine

## O=c1cc(-c2ccc(O)cc2)oc2cc(O)cc(O)c12 [AG, apigenin]
SpF6H1
  HPLC-DAD / UPLC-Q-TOF-MS product detection: SpF6H1 produced scutellarein from apigenin, a precursor of hispidulin

## CC(C)(COP(=O)(O)OP(=O)(O)OC[C@H]1O[C@@H](n2cnc3c(N)ncnc32)[C@H](O)[C@@H]1OP(=O)(O)O)[C@@H](O)C(=O)NCCC(=O)NCCSC(=O)/C=C/c1ccc(O)cc1 [4-coumaryl-CoA]
SpCHS1
  HPLC-DAD / UPLC-Q-TOF-MS of E. coli culture extract: providing a sufficient substrate for the catalytic reaction of SpCHS

## O=C(/C=C/c1ccc(O)cc1)c1c(O)cc(O)cc1O [NC, naringenin chalcone]
SpCHI
  HPLC-DAD / UPLC-Q-TOF-MS product detection: naringenin chalcone was completely consumed in the sample group to generate naringenin

## O=C(O)/C=C/c1ccccc1 [CiA, cinnamic acid]
SpC4H
  HPLC-DAD / UPLC-Q-TOF-MS product detection: SpC4H was able to catalyze the production of 4-coumaric acid from cinnamic acid

## COc1c(O)cc2oc(-c3ccc(O)cc3)cc(=O)c2c1O [HD, hispidulin]
SpUGT2
  HPLC-DAD / UPLC-Q-TOF-MS product detection: SpUGT1, SpUGT2, and SpUGT3 produced homoplantaginin from hispidulin in vitro
SpUGT3
  HPLC-DAD / UPLC-Q-TOF-MS product detection: SpUGT1, SpUGT2, and SpUGT3 produced homoplantaginin from hispidulin in vitro
SpUGT1
  HPLC-DAD / UPLC-Q-TOF-MS product detection: SpUGT1, SpUGT2, and SpUGT3 produced homoplantaginin from hispidulin in vitro

## O=c1cc(-c2ccc(O)cc2)oc2cc(O)c(O)c(O)c12 [SA, scutellarein]
SpF6OMT1
  HPLC-DAD / UPLC-Q-TOF-MS product detection: SpF6OMT1 and SpF6OMT2 converted scutellarein into hispidulin
SpF6OMT2
  HPLC-DAD / UPLC-Q-TOF-MS product detection: SpF6OMT1 and SpF6OMT2 converted scutellarein into hispidulin
